ChEMBL document CHEMBL2021763, “Solution NMR analysis of the binding mechanism of DIVS6 model peptides of voltage-gated sodium channels and the lipid soluble alkaloid veratridine” (Bioorg Med Chem, 2012)

Columns and labels:
[1] = Toxicity in ip dosed mouse; type: organism-based; settings: in vivo
[2] = Binding affinity to transmembrane model peptide-1 of domain 4 segment 6 of rat skeletal muscle Nav1.4 by Marquardt and Levenberg algorithm analysis
[3] = Binding affinity to transmembrane model peptide-2 of domain 4 segment 6 of rat skeletal muscle Nav1.4 by Marquardt and Levenberg algorithm analysis

SMILES	LD50 [1] [mg/kg]	Kd [2] [mM]	Kd [3] [µM]
C[C@H]1CC[C@@H]2N(C1)C[C@@H]1[C@](O)([C@@H](O)C[C@@]3(O)[C@@H]4CC[C@@H]5[C@]6(O)O[C@@]4(C[C@@]13O)[C@@]5(C)CC[C@@H]6O)[C@]2(C)O [VERACEVINE]	> 100	0.89	–
COc1ccc(C(=O)O[C@H]2CC[C@@]3(C)[C@@H]4CC[C@H]5[C@]6(O)C[C@H](O)[C@@]7(O)[C@@H](CN8C[C@@H](C)CC[C@H]8[C@@]7(C)O)[C@]6(O)C[C@@]53O[C@]24O)cc1OC [VERATRIDINE]	9	1.4	490
